Like-named read-outs stand apart in the source and are kept apart here. Blank lines part the entries; values can stand above or below the compound they belong to.
How the values were obtained:
[1] = target: T1, AmpC β-lactamase (Escherichia coli, UniProt P00811); format: biochemical; conditions: for type of inhibition: Lineweaver-Burk analysis, competition with substrate CENTA; for time dependence of inhibition (incubation effect, off-rate): enzyme incubation and dilution experiments
T1 construct: made in house
T1 sequence (P00811 20-377): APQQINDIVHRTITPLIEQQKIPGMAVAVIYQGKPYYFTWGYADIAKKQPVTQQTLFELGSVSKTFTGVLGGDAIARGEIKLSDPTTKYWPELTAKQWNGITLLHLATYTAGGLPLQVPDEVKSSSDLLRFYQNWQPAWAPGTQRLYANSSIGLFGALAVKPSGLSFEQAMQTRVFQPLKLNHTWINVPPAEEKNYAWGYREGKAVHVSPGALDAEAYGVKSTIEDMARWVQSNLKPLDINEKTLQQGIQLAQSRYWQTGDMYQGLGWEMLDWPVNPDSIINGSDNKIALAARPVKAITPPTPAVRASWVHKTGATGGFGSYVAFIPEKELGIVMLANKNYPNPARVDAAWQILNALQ

[2] = test system: clinical strains resistant to third-generation cephalosporins; test: MIC distribution of third-generation cephalosporins alone or with compounds over clinical strains; format: cell-based; conditions: for clinical isolates for which MICs dropped into the susceptible range (MICs≦1 μg/mL): cephalosporins combined with the compound; for MIC 25% percentile / MIC 75% percentile: third-generation cephalosporins in combination with the compound
Experimental: The anti-resistance activity of inhibitors was investigated by the determination of the minimum inhibitory concentrations (MICs) of the β-lactam/inhibitor combination necessary to inhibit the growth of clinically-isolated bacteria resistant to third-generation cephalosporins via expression of class A or class C β-lactamases (Table 6).
Susceptibility testing was performed and interpreted following the guidelines of CLSI. (Clinical and Laboratory Standards Institute, Performance standards for antimicrobial susceptibility testing, 20th Informational Supplement, M100-S20 2010) The compounds were dissolved in 50% DMSO, and dilutions were performed using Muller-Hinton medium. An adequate final concentration was obtained to determine the minimum inhibitory concentrations (MICs). The concentration of DMSO was maintained below 5%. The inhibitors were tested for synergy with the third-generation β-lactams ceftazidime and cefotaxime against several clinical bacteria. The ratio of β-lactams to inhibitors was 1:4. Each value reported reflects the average of three independent experiments. […] The Friedman's test and the Wilcoxon signed rank test were used to compare MIC values. Statistical significance was established at p<0.05.

[3] = target: T2, α-chymotrypsin (bovine pancreatic) (Bos taurus, UniProt P00766); test: α-Chymotrypsin inhibition; format: biochemical; conditions: for activity at 100 µM: Table 4b, 100 μM inhibitor, read-out: Percentage activity with 100 μM inhibitor; for potency estimated from few doses: Table 4e, read-out: IC50 (Estimated from single concentration measurement); for Ki: Table 10, α-Chymotrypsin; for inhibition at 100 µM: read-out: Percentage inhibition with 100 μM inhibitor; for Selectivity vs AmpC (comparison of IC50 values): Table 4h, Chymotrypsin vs AmpC
T2 construct: purchased Sigma-Aldrich
Experimental: α-Chymotrypsin assays were performed in 50 mM Tris buffer pH 7.5 with 0.01% Triton-X. Inhibitor and 0.001 mg/mL enzyme were incubated at their final concentration for 10 min before the reaction was initiated by the addition of 200 μM N-succinyl-Ala-Ala-Pro-Phe p-nitroanilide and monitored at 410 nm.
(§1) To assess the selectivity of the new molecules we determined Ki values against three common serine proteases, Trypsin, Elastase and α-Chymotrypsin, as well as that of a class A β-lactamase, CTX-M-9 (Table 10) (Pouvreau L, et al. (1998), FEBS Lett 423:167-172; Del Mar E G, et al. (1980), Biochemistry 19:468-472; Rodriguez-Martinez J A, et al. (2009), Biotechnol Lett 31:883-887; Chen Y, et al. (2005), J Mol Biol 348:349-362).

[4] = target: CTX-M-9 β-lactamase (Escherichia coli, UniProt Q9L5C8); test: biochemical; format: biochemical; conditions: for Ki: Table 8, read-out: Ki vs CTX-M-9; for potency estimated from few doses: read-out: IC50 (Estimated from single concentration measurement); for inhibition at 16 µM: read-out: Percentage inhibition with 16 μM inhibitor; for Selectivity vs AmpC (comparison of IC50 values): Table 4h, CTX-M-9 vs AmpC
CTX-M-9 β-lactamase, sequence (Q9L5C8 29-291): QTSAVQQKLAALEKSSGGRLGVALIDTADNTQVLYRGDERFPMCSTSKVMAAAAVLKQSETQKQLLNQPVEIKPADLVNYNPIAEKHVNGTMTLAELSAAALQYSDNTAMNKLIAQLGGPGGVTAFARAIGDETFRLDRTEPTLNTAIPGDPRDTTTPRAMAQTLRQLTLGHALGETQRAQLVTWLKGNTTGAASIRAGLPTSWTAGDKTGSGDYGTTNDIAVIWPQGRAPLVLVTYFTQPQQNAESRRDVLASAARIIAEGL
Experimental: Reactions were initiated by the addition of 0.3 nM enzyme and monitored at 405 nm.
as §1

[5] = target: T1, AmpC β-lactamase; test: biochemical; format: biochemical; conditions: for improved affinity compared to CR157: ratio of Ki values
Experimental: FIG. 18. Representative IC50 curves. […] IC50 curves were obtained by measuring rates (in duplicates) at different inhibitor concentrations (x-axis) and by determining the residual activity (y-axis, in percentage). IC50 values were determined by non-linear regression and Ki values calculated using GraphPad software assuming competitive inhibition.
Sulfonamidomethaneboronic acids were dissolved in 100% DMSO at a concentration of 100 mM; more diluted stocks were prepared as necessary. […] The enzyme was expressed and purified as described (Usher, K. C. et al., Biochemistry 1998, 37, 16082-16092) and CENTA was purchased from Tydock Pharma.
Kinetic measurements were run at room temperature in 50 mM sodium-cacodylate pH 6.5 in the presence of 0.01% Triton-X to prevent non-specific inhibition via compound aggregation. […] (Kettner, C. A. and Shenvi, A. B., J. Biol. Chem. 1984, 259, 15106-15114) Reactions were performed in 1 mL cuvettes with 60 μM CENTA and initiated by adding 1.2 nM enzyme. […] (Weston, G. S. et al., J. Med. Chem. 1998, 41, 4577-4586) The first 180 sec of each reaction were used to measure initial rates. IC50 values were obtained by fitting binding data to a sigmoidal dose-response equation using GraphPad Prism (GraphPad software, Inc). Ki values were determined by the use of Cheng-Prusoff equation. (Cheng, Y. and Prusoff, W. H., Biochem. Pharmacol. 1973, 22, 3099-3108)

[6] = target: T3, Trypsin (UniProt P00760); test: Trypsin inhibition; format: biochemical; conditions: for Percentage activity with 100 μM inhibitor: Table 4b; for Percentage inhibition with 100 μM inhibitor: Table 4c; for potency estimated from few doses: read-out: IC50 (Estimated from single concentration measurement), Table 4e
T3 construct: IC50 (Estimated from single concentration measurement); Ki
T3 sequence (P00760 1-246): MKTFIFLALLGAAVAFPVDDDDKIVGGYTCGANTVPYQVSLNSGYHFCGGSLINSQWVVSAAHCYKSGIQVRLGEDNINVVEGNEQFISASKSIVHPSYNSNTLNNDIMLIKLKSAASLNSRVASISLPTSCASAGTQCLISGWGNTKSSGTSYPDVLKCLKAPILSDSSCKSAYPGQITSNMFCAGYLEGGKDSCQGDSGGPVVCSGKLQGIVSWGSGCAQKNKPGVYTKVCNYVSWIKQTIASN

[7] = target: T3, Trypsin; test: Trypsin inhibition; format: biochemical; conditions: Table 10, Trypsin
Description: as §1

[8] = test system: Elastase; test: Elastase inhibition; format: biochemical; conditions: Table 4h, Elastase vs AmpC
Description: as §1

[9] = test system: Trypsin; test: Trypsin inhibition; format: biochemical; conditions: Table 4h, Trypsin vs AmpC
[10] = Ki (from multi- or single concentration measurements), Table 4g

SMILES: O=S(=O)(NCB(O)O)c1ccc(-c2nn[nH]n2)c(Cl)c1 [CR191, [3-chloro-4-(3-tetrazol-5-yl)benzensulfonylamino]methaneboronic acid]
type of inhibition [1]: competitive
time dependence of inhibition (incubation effect, off-rate) [1]: slow off-rate
clinical isolates for which MICs dropped into the susceptible range (MICs≦1 μg/mL) [2]: 25%
MIC 25% percentile [2]: 1.0 µg/mL
MIC 75% percentile [2]: 4.0 µg/mL
activity at 100 µM [3]: 85%
potency estimated from few doses [3]: 567 µM
Ki [3]: 141 µM
inhibition at 100 µM [3]: 15%
IC50 [4]: 7 µM
Ki [4]: 2.5 µM
potency estimated from few doses [4]: 7 µM
inhibition at 16 µM [4]: 70%
IC50 [5]: 0.0016 µM
Ki ([5]; Ki): 3 nM
Ki [5, 10]: 3 nM
Ki ([5]; Ki Vs AmpC, Table 7): 3 nM
Ki ([5]; Ki vs AmpC, Table 8): 3 nM
Ki ([5]; Ki, Table 5): 3 nM
Ki ([5]; Ki, Table 10, AmpC): 3 nM
Ligand efficiency ([5]; Table 5): 0.57
Percentage activity with 100 μM inhibitor [6]: 95
Percentage inhibition with 100 μM inhibitor [6]: 5
potency estimated from few doses [6]: 1900 µM
Ki [7]: 350 µM
melting point: 195 to 198 °C (dec.)

SMILES: O=S(=O)(NCB(O)O)c1ccc(-c2nn[nH]n2)cc1Cl [CR190, [2-chloro-4-(3-tetrazol-5-yl)benzensulfonylamino]methaneboronic acid]
type of inhibition [1]: competitive
time dependence of inhibition (incubation effect, off-rate) [1]: slow off-rate
Selectivity vs AmpC (comparison of IC50 values) [8]: 30784
clinical isolates for which MICs dropped into the susceptible range (MICs≦1 μg/mL) [2]: 50%
MIC 25% percentile [2]: 0.5 µg/mL
MIC 75% percentile [2]: 2.0 µg/mL
activity at 100 µM [3]: 85%
potency estimated from few doses [3]: 567 µM
Ki [3]: 141 µM
Selectivity vs AmpC (comparison of IC50 values) [3]: 354167
inhibition at 100 µM [3]: 15%
IC50 [4]: 4 µM
Ki [4]: 1.4 µM
Selectivity vs AmpC (comparison of IC50 values) [4]: 2346
potency estimated from few doses [4]: 4 µM
inhibition at 16 µM [4]: 81%
IC50 [5]: 0.0016 µM
Ki [5, 10]: 0.2 nM
Ki ([5]; Ki Vs AmpC, Table 7): 0.2 nM
Ki ([5]; Ki vs AmpC, Table 8): 0.2 nM
Ki ([5]; Ki, Table 5): 0.2 nM
Ki ([5]; Ki, Table 10, AmpC): 0.2 nM
Ki ([5]; Ki, running text and FIG. 18, substrate CENTA 105 μM): 0.2 nM
Ligand efficiency ([5]; Table 5): 0.65
improved affinity compared to CR157 [5]: 6 fold
Percentage activity with 100 μM inhibitor [6]: 95
Percentage inhibition with 100 μM inhibitor [6]: 5
potency estimated from few doses [6]: 1900 µM
Selectivity vs AmpC (comparison of IC50 values) [9]: 1187500
Ki [7]: 350 µM
melting point: 110 to 113 °C (dec.)

SMILES: O=S(=O)(NCB(O)O)c1ccc(-c2nnn[nH]2)cc1 [CR157, [4-(3-tetrazol-5-yl)benzensulfonylamino]methaneboronic acid]
type of inhibition [1]: competitive
time dependence of inhibition (incubation effect, off-rate) [1]: incubation effect owing to slow off-rates
Selectivity vs AmpC (comparison of IC50 values) [8]: 31309
clinical isolates for which MICs dropped into the susceptible range (MICs≦1 μg/mL) [2]: 25%
MIC 25% percentile [2]: 1.5 µg/mL
MIC 75% percentile [2]: 4.0 µg/mL
activity at 100 µM [3]: 90%
potency estimated from few doses [3]: 900 µM
Ki [3]: 224 µM
Selectivity vs AmpC (comparison of IC50 values) [3]: 145161
inhibition at 100 µM [3]: 10%
IC50 [4]: 10.5 µM
Ki [4]: 2.5 µM
Selectivity vs AmpC (comparison of IC50 values) [4]: 1694
potency estimated from few doses [4]: 6 µM
inhibition at 16 µM [4]: 73%
IC50 [5]: 0.0062 µM
Ki ([5]; Ki): 0.8 to 1.3 nM
Ki [5, 10]: 1.2 nM
Ki ([5]; Ki Vs AmpC, Table 7): 1.2 nM
Ki ([5]; Ki vs AmpC, Table 8): 1.2 nM
Ki ([5]; Ki, Table 5): 1.2 nM
Ki ([5]; Ki, Table 10, AmpC): 1.2 nM
Ligand efficiency ([5]; Table 5): 0.63
Percentage activity with 100 μM inhibitor [6]: 95
Percentage inhibition with 100 μM inhibitor [6]: 5
potency estimated from few doses [6]: 1900 µM
Selectivity vs AmpC (comparison of IC50 values) [9]: 306452
Ki [7]: 350 µM

melting point: 185 to 188 °C
SMILES: O=S(=O)(Cc1cccs1)NCB(O)O [Compound 10]

SMILES: O=S(=O)(NCB(O)O)c1ccc(-c2nnn[nH]2)cc1C(F)(F)F [CR192, [4-(3-tetrazol-5-yl)-2-trifluoromethyl-benzensulfonylamino]methaneboronic acid]
type of inhibition [1]: competitive
time dependence of inhibition (incubation effect, off-rate) [1]: slow off-rate
Selectivity vs AmpC (comparison of IC50 values) [8]: 34091
clinical isolates for which MICs dropped into the susceptible range (MICs≦1 μg/mL) [2]: 50%
MIC 25% percentile [2]: 1.0 µg/mL
MIC 75% percentile [2]: 2.0 µg/mL
activity at 100 µM [3]: 85%
potency estimated from few doses [3]: 567 µM
Ki [3]: 141 µM
Selectivity vs AmpC (comparison of IC50 values) [3]: 1416667
inhibition at 100 µM [3]: 15%
IC50 [4]: 5 µM
Ki [4]: 1.8 µM
Selectivity vs AmpC (comparison of IC50 values) [4]: 11948
potency estimated from few doses [4]: 5 µM
inhibition at 16 µM [4]: 77%
IC50 [5]: 0.0004 µM
time until substrate hydrolysis rates converge (equilibrium) ([5]; 50 pM AmpC, 500 pM inhibitor, with or without 5 minutes pre-incubation): 10 to 15 min
Ki ([5]; Table 4g, read-out: Ki (from multi- or single concentration measurements)): 0.05 nM
Ligand efficiency ([5]; Table 5): 0.60
Ki ([5]; Table 5, read-out: Ki): 0.05 nM
Ki ([5]; Table 7, read-out: Ki Vs AmpC): 0.05 nM
Ki ([5]; Table 8, read-out: Ki vs AmpC): 0.05 nM
Ki ([5]; Table 10, AmpC, read-out: Ki): 0.05 nM
improved affinity compared to CR157 [5]: 24 fold
Ki ([5]; running text and FIG. 18, substrate CENTA 105 μM, read-out: Ki): 0.05 nM
Percentage activity with 100 μM inhibitor [6]: 96
Percentage inhibition with 100 μM inhibitor [6]: 4
potency estimated from few doses [6]: 2400 µM
Selectivity vs AmpC (comparison of IC50 values) [9]: 6000000
Ki [7]: 442 µM

Reference: patent publication US9371337B2, “β-lactamase inhibitors” (The Regents of the University of California, priority 2011, dated 2016)
